“Also recorded” adds a separate entry of the source.
Experiments:
utrophin [1] = experiment: Utrophin immunofluorescence in NXLT (normal) myotubes; format: cell-based, mouse; details: 48 hours
Procedure: (§1) A, a-h: normal cell line (NXTL). B, a′-h′: mdx cell line (XLT). The cell cultures were treated by exposure of the differentiated myotubes to drugs for 48 hours. A, a′: control cultures. B, b′: L-arginine(2.10^−3M). c, c′: SIN-1 (10^−3 M). d, d′: SIN-I (10^−3 M) +L-arginine (10^−3 M). e, e′: D-arginine (10^−3 M). f, f′: L-arginine (10^−3 M)+OQD (10^−5 M). g, g′: L-NMMA (10^−3 M). h, h′: hydroxyurea (10^−4 M).
(§2) Myotubes were obtained from normal cell line (NXLT) and mdx cell line as described by Liberona et al (1998, Muscle & Nerve, 21:902-909), and C2 myotubes as described by Inestrosa et al. (1983, Exp. Cell Res., 147:393-405).
(§3) In vitro. The cultures were treated as described previously with the exception of the second antibody labelled with fluoroscein which was diluted to 1/100 vol/vol. The incubation time was 2 hours for the first and second antibody.

utrophin [2] = experiment: Utrophin immunofluorescence in XLT (mdx) myotubes; format: cell-based, mouse; details: 48 hours
Procedure: as §1, §2, §3

utrophin [3] = experiment: Utrophin immunofluorescence in C2 myotubes; format: cell-based, mouse; details: C2 mice myotubes
Procedure: Myotubes were obtained from normal cell line (NXLT) and mdx cell line as described by Liberona et al (1998, Muscle & Nerve, 21:902-909), and C2 myotubes as described by Inestrosa et al. (1983, Exp. Cell Res., 147:393-405). In vitro. The cultures were treated as described previously with the exception of the second antibody labelled with fluoroscein which was diluted to 1/100 vol/vol. The incubation time was 2 hours for the first and second antibody.

utrophin [4] = experiment: Utrophin immunoblot of NXLT myotubes; format: cell-based, mouse; details: 48 hours, 2.10^-3 M
Procedure: (§4) Imunoblot analysis of utrophin was conducted under control conditions (CTRL) and after 48 hours treatment with 2.10^−3 M L-arginine (L-arg).
as §2
(§5) The myotubes obtained from the NXLT, XLT and C2 lines were homogenized using a Polytron (Kinematica) in 10 mM Tris-HCl pH 6.8, 1% Triton X-100, 1% SOS, 0.5% sodium deoxycholate on ice. The quantity of total proteins was determined following the protocol for the bicinchoninic acid protein test (BCA, Pierce). Equivalent quantities of protein were separated by SOS-Page on 5% gel, then electrotransferred onto a nitrocellulose membrane (Schleicher & Schuell). The membranes were then incubated with the same monoclonal antibody directed against utrophin used for the immunofluorescence techniques (1/250 vol/vol). The fixed antibodies were detected with a Sanofi anti-mouse goat secondary antibody (1/5000 vol/vol) bound to horseradish peroxydase and developed by chemioluminescence reaction (ECL, Amersham Pharmacy Biotech).

utrophin [5] = experiment: Utrophin immunolocalisation in muscle of mdx mice treated chronically with L-arginine; format: in vivo, mouse; details: 200 mg/kg daily intra-peritoneal for three weeks, thigh muscles
Procedure: (§6) Three normal, adult mice aged 18 months (C57 BL/6 line) and three mdx mice were given a daily intra-peritoneal injection of 200 mg/kg L-arginine for three weeks. Two other groups of three adult mice were used as controls and were given a daily injection of physiological serum.
(§7) The mice were sacrificed by ether anaesthesia, the biceps femoris and the semi-tendinous muscles were quickly dissected from the hind limbs of each animal and frozen in liquid nitrogen.
(§8) In vivo. After cold fixing in methanol (−20° C. for 10 minutes) sections of […] were incubated for two hours with utrophin specific monoclonal antibody (NCL-DRP 2, Novacastra) (1/10 vol/vol) in PBS containing 0.1% saponin and 0.2% bovine albumin. The second antibody labelled with fluoroscein (N 1031, Amersham) was diluted (1/4000 vol/vol) in PBS containing 0.1% saponin and incubated for one hour.

utrophin [6] = experiment: Utrophin immunoblot of XLT (mdx) myotubes; format: cell-based, mouse; details: 48 hours, 2.10^-3 M
Procedure: as §4, §2, §5

utrophin [7] = experiment: Utrophin immunolocalisation in muscle of normal adult mice treated chronically with L-arginine; format: in vivo, mouse; details: normal adult C57 BL/6 mice, 200 mg/kg daily intra-peritoneal for three weeks, thigh muscles
Procedure: as §6, §7, §8

utrophin [8] = experiment: Utrophin immunofluorescence in primary rat myotubes; format: cell-based
Procedure: as §3

utrophin [9] = experiment: Utrophin immunoblot of C2 myotubes; format: cell-based, mouse; details: 48 hours, 2.10^-3 M
Procedure: as §4, §2, §5

[10] = ODQ 10^-5 M with L-arginine 10^-3 M

Question: Which utrophin labelling (utrophin [1]; 10^-3 M) does the source give for `N=C(N)NCCC[C@@H](N)C(=O)O` [D-arginine] here?
Answer: The utrophin labelling was “absence of any effect”.

Question: And the utrophin labelling (utrophin [2]; 10^-3 M)?
Answer: The utrophin labelling was “absence of any effect”.

Question: Which utrophin labelling (utrophin [1]; 10^-3 M) does the source give for `CNC(=N)NCCC[C@H](N)C(=O)O` [L-NMMA, N^G-methyl-L-arginine] here?
Answer: The utrophin labelling was “basal level of utrophin”.

Question: And the utrophin labelling (utrophin [2]; 10^-3 M)?
Answer: Its utrophin labelling is “basal level of utrophin”.

Question: Which utrophin labelling (utrophin [3]) does the source give for `N=C(N)NCCCC(N)C(=O)O` [L-arginine, 2-amino-5-guanidinovaleric acid] here?
Answer: The utrophin labelling was “increased labelling of utrophin was also observed to a lesser extent”.

Question: What about the “utrophin level (Western blot)” value (utrophin [4]) of the same compound?
Answer: Its value is “evident increase of utrophin”.

Question: What about the utrophin labelling (utrophin [1]; 2.10^-3 M) of the same compound?
Answer: Its utrophin labelling is “utrophin labelling increased”.

Question: And the “utrophin at the sarcolemma (immunolocalisation)” value (utrophin [5])?
Answer: The value was “increase in utrophin levels under the sarcolenima; also recorded: increased the utrophin level already present in the sarcolemma”.

Question: And the “utrophin level (Western blot)” value (utrophin [6])?
Answer: Its value is “evident increase of utrophin”.

Question: And the utrophin labelling (utrophin [2]; 2.10^-3 M)?
Answer: The utrophin labelling was “utrophin labelling increased”.

Question: And the “utrophin at the sarcolemma (immunolocalisation)” value (utrophin [7])?
Answer: The value was “utrophin is seen under the sarcolemma; also recorded: utrophin was detected underneath the sarcolemma”.

Question: What about the utrophin labelling (utrophin [8]) of the same compound?
Answer: The utrophin labelling was “increased labelling of utrophin was also observed to a lesser extent”.

Question: And the “utrophin level (Western blot)” value (utrophin [9])?
Answer: The value was “increase in utrophin after treatment with L-arginine was confirmed”.

Question: Which “utrophin synthesis induced by NO (labelling)” value (utrophin [1]; [10]) does the source give for `O=c1onc2cnc3ccccc3n12` [ODQ] here?
Answer: Its value is “inhibited”.

Question: And the “utrophin synthesis induced by NO (labelling)” value (utrophin [2]; [10])?
Answer: The value was “inhibited”.

Question: With `N=c1c[n+](N2CCOCC2)[n-]o1` [SIN-1, 3-morpholino-sydnonimine] as the compound, how does the utrophin labelling (utrophin [3]) read?
Answer: The utrophin labelling was “increased labelling of utrophin was also observed to a lesser extent”.

Question: And the utrophin labelling (utrophin [1]; 10^-3 M)?
Answer: Its utrophin labelling is “utrophin labelling increased”.

Question: And the utrophin labelling (utrophin [2]; 10^-3 M)?
Answer: The utrophin labelling was “utrophin labelling increased”.

Question: And the utrophin labelling (utrophin [8])?
Answer: Its utrophin labelling is “increased labelling of utrophin was also observed to a lesser extent”.

Question: Which utrophin labelling (utrophin [1]; 10^-4 M) does the source give for `NC(=O)NO` [hydroxyurea] here?
Answer: Its utrophin labelling is “increases utrophin labelling in remarkable manner”.

Question: And the utrophin labelling (utrophin [2]; 10^-4 M)?
Answer: The utrophin labelling was “increases utrophin labelling in remarkable manner”.
